Read-outs that look alike come from different tables or passages of the source.
Key:
Test in all cases: MTT cell proliferation assay
Format in all cases: cell-based
MS751 cells = conditions: Homo sapiens, MS751, MS751 cells, approximately 64-72 hours incubation
Protocol: (§1) The MTT cell proliferation assay was used to study the cytotoxic properties of the compounds. The assay was performed according to the method described by Roche Molecular Biochemicals, with minor modifications. The assay is based on the cleavage of the tetrazolium salt, MTT, in the presence of an electron-coupling reagent. The water-insoluble formazan salt produced must be solubilized in an additional step. Cells grown in a 96-well tissue culture plate were incubated with the MTT solution for approximately 4 hours. After this incubation period, a water-insoluble formazan dye formed. After solubilization, the formazan dye was quantitated using a scanning multi-well spectrophotometer (ELISA reader). […] The cells were seeded at 5,000-10,000 cells in each well of 96-well plate in 100 μL of fresh culture medium and were allowed to attach overnight. The stock solutions of the compounds were diluted in 100 μL cell culture medium to obtain eight concentrations of each test compound, ranging from 1 nM to 30 μM. […] All optical densities were measured at 490 nm using a Vmax Kinetic Microplate Reader (Molecular Devices). In most cases, the assay was performed in duplicate and the results were presented as a mean percent inhibition to the negative control±SE. The following formula was used to calculate the percent of inhibition: Inhibition (%)=(1−(ODo/OD))×100.
(§2) The compounds were tested against MS751, Z138 and 3T3 cells. The MS751 cell line is derived from a metastasis to lymph node of human cervix from a patient diagnosed with squamous cell carcinoma of the cervix. The Z138 cell line is a mature B-cell acute lymphoblastic leukemia cell line derived from a patient with chronic lymphocytic leukemia. 3T3 cells are standard fibroblast cells; they were originally isolated from Swiss mouse embryo tissue.

3T3 cells = conditions: Mus musculus, NIH3T3, approximately 64-72 hours incubation
Protocol: as §1, §2

Z138 cells = conditions: Homo sapiens, Z-138, Z138 cells, approximately 64-72 hours incubation
Protocol: as §1, §2

[1] = read-out: MTT Assay IC50 MS-751
[2] = read-out: MTT Assay IC50, MS-751
[3] = read-out: MTT Assay IC50, Z-138

| SMILES | IC50 (MS751 cells; [1]) [µM] | IC50 (3T3 cells; read-out: MTT Assay IC50 3T3) [µM] | IC50 (Z138 cells; read-out: MTT Assay IC50 Z-138) [µM] | IC50 (MS751 cells; [2]) [µM] | IC50 (3T3 cells; read-out: MTT Assay IC50, 3T3) [µM] | IC50 (Z138 cells; [3]) [µM] |
| --- | --- | --- | --- | --- | --- | --- |
| O=C(/C=C/c1cscn1)NCc1cc2cc(-c3ccc(C(=O)N4CCOCC4)cc3)cc(Cl)c2o1 [Compound 542] | 0.1 to 5 | > 10 | 0.1 to 5 | – | – | – |
| CC1(C)CN(C(=O)c2ccc(-c3cc(C(F)(F)F)c4oc(CNC(=O)/C=C/c5ccc(N)nc5)cc4c3)cc2)CCO1 [Compound 530, (E)-3-(6-aminopyridin-3-yl)-N-((5-(4-(2,2-dimethylmorpholine-4-carbonyl)phenyl)-7-(trifluoromethyl)benzofuran-2-yl)methyl)acrylamide] | 0.1 to 5 | > 10 | 0.1 to 5 | – | – | – |
| O=C(/C=C/c1cccnc1)NCc1cc2cc(-c3ccc(C(=O)N4CCC(F)(F)CC4)cn3)cc(C(F)(F)F)c2o1 [Compound 671, (E)-N-((5-(5-(4,4-difluoropiperidine-1-carbonyl)pyridin-2-yl)-7-(trifluoromethyl)benzofuran-2-yl)methyl)-3-(pyridin-3-yl)acrylamide] | – | – | – | 0.1 to 5 | 0.1 to 5 | 0.1 to 5 |
| Nc1ccc(/C=C/C(=O)NCc2cc3cc(-c4ccc(C(=O)N5CCOCC5)nn4)cc(Cl)c3o2)cn1 [Compound 552, (E)-3-(6-aminopyridin-3-yl)-N-((7-chloro-5-(6-(morpholine-4-carbonyl)pyridazin-3-yl)benzofuran-2-yl)methyl)acrylamide] | 0.1 to 5 | > 10 | 0.1 to 5 | – | – | – |
| CC1(F)CCN(C(=O)c2ccc(-c3cc(C(F)(F)F)c4oc(CNC(=O)/C=C/c5ccc(N)nc5)cc4c3)cc2)C1 (single isomer, unassigned) [Compound 715, (E)-3-(6-aminopyridin-3-yl)-N-((5-(4-(3-fluoro-3-methylpyrrolidine-1-carbonyl)phenyl)-7-(trifluoromethyl)benzofuran-2-yl)methyl)acrylamide] | – | – | – | 0.1 to 5 | > 10 | 0.1 to 5 |
| Nc1ccc(/C=C/C(=O)NCc2cc3cc(-c4cccc(C(=O)N5CCOCC5)c4)cc(Cl)c3o2)cn1 [Compound 543, (E)-3-(6-Aminopyridin-3-yl)-N-((7-chloro-5-(3-(morpholine-4-carbonyl)phenyl)benzofuran-2-yl)methyl)acrylamide] | < 0.1 | 0.1 to 5 | < 0.1 | – | – | – |
| Nc1ccc(/C=C/C(=O)NCc2cc3cc(-c4ccc(OC5CCC(F)(F)CC5)cc4)cc(-c4ccc(F)cc4)c3o2)cn1 [Compound 763, (E)-3-(6-aminopyridin-3-yl)-N-((5-(4-((4,4-difluorocyclohexyl)oxy)phenyl)-7-(4-fluorophenyl)benzofuran-2-yl)methyl)acrylamide] | – | – | – | 0.1 to 5 | > 10 | 0.1 to 5 |
| COc1cc(-c2ccc(S(=O)(=O)N3CCOCC3)cc2)cc2cc(CNC(=O)/C=C/c3ccc(N)nc3)oc12 [Compound 635, (E)-3-(6-aminopyridin-3-yl)-N-((7-methoxy-5-(4-(morpholinosulfonyl)phenyl)benzofuran-2-yl)methyl)acrylamide] | < 0.1 | 0.1 to 5 | < 0.1 | – | – | – |
| Nc1ccc(/C=C/C(=O)NCc2cc3cc(-c4ccc(C(=O)N5CCC(F)(F)CC5)cc4)cc(-c4ccncc4)c3o2)cn1 [Compound 722, (E)-3-(6-aminopyridin-3-yl)-N-((5-(4-(4,4-difluoropiperidine-1-carbonyl)phenyl)-7-(pyridin-4-yl)benzofuran-2-yl)methyl)acrylamide] | – | – | – | < 0.1 | 0.1 to 5 | < 0.1 |
| O=C(/C=C/c1cccnc1)NCc1cc2cc(-c3ccc(C(=O)N4CCOCC4)cc3)cc(Cl)c2o1 [Compound 538, (E)-N-((7-chloro-5-(4-(morpholine-4-carbonyl)phenyl)benzofuran-2-yl)methyl)-3-(pyridin-3-yl)acrylamide] | 0.1 to 5 | 0.1 to 5 | 0.1 to 5 | – | – | – |
| Nc1ccc(/C=C/C(=O)NCc2cc3cc(-c4ccc(C(=O)N5CC(F)(F)C5)cn4)cc(C(F)(F)F)c3o2)cn1 [Compound 645, (E)-3-(6-aminopyridin-3-yl)-N-((5-(5-(3,3-difluoroazetidine-1-carbonyl)pyridin-2-yl)-7-(trifluoromethyl)benzofuran-2-yl)methyl)acrylamide] | 0.1 to 5 | > 10 | < 0.1 | – | – | – |
| Nc1ccc(/C=C/C(=O)NCc2cc3ccc(-c4ccc(C(=O)N5CCC(F)(F)CC5)cn4)cc3o2)cn1 [Compound 718, (E)-3-(6-Aminopyridin-3-yl)-N-((6-(5-(4,4-difluoropiperidine-1-carbonyl)pyridin-2-yl)benzofuran-2-yl)methyl)acrylamide] | – | – | – | 0.1 to 5 | > 10 | 0.1 to 5 |
| Nc1ccc(/C=C/C(=O)NCc2cc3cc(-c4ccc(C(=O)CN5CCOCC5)cc4)cc(Cl)c3o2)cn1 [Compound 507, (E)-3-(6-aminopyridin-3-yl)-N-((7-chloro-5-(4-(2-morpholinoacetyl)phenyl)benzofuran-2-yl)methyl)acrylamide] | 0.1 to 5 | > 10 | 0.1 to 5 | – | – | – |
| Nc1ccc(/C=C/C(=O)NCc2cc3cc(-c4ccc(C(=O)N5CC[C@H](Cl)C5)cn4)cc(C(F)(F)F)c3o2)cn1 [Compound 618, (S,E)-3-(6-aminopyridin-3-yl)-N-((5-(5-(3-chloropyrrolidine-1-carbonyl)pyridin-2-yl)-7-(trifluoromethyl)benzofuran-2-yl)methyl)acrylamide] | 0.1 to 5 | > 10 | 0.1 to 5 | – | – | – |
| CC1(C)CN(C(=O)c2ccc(-c3cc(C(F)(F)F)c4oc(CNC(=O)/C=C/c5ccc(N)nc5)cc4c3)cc2)CCN1 [Compound 572, (E)-3-(6-aminopyridin-3-yl)-N-((5-(4-(3,3-dimethylpiperazine-1-carbonyl)phenyl)-7-(trifluoromethyl)benzofuran-2-yl)methyl)acrylamide] | < 0.1 | 0.1 to 5 | < 0.1 | – | – | – |
| CC1(C)CN(S(=O)(=O)c2ccc(-c3cc(Cl)c4oc(CNC(=O)/C=C/c5ccc(N)nc5)cc4c3)cc2)C1 [Compound 555, (E)-3-(6-aminopyridin-3-yl)-N-((7-chloro-5-(4-(3,3-dimethylazetidin-1-ylsulfonyl)phenyl)benzofuran-2-yl)methyl)acrylamide] | 0.1 to 5 | > 10 | 0.1 to 5 | – | – | – |
| Cc1noc(-c2ccc(F)cc2)c1-c1cc(C(F)(F)F)c2oc(CNC(=O)/C=C/c3ccc(N)nc3)cc2c1 [Compound 648, (E)-3-(6-aminopyridin-3-yl)-N-((5-(5-(4-fluorophenyl)-3-methylisoxazol-4-yl)-7-(trifluoromethyl)benzofuran-2-yl)methyl)acrylamide] | 0.1 to 5 | > 10 | 0.1 to 5 | – | – | – |
| Nc1ccc(/C=C/C(=O)NCc2cc3cc(-c4ccc(F)c(C(=O)N5CCOCC5)n4)cc(C(F)(F)F)c3o2)cn1 [Compound 579, (E)-3-(6-aminopyridin-3-yl)-N-((5-(5-fluoro-6-(morpholine-4-carbonyl)pyridin-2-yl)-7-(trifluoromethyl)benzofuran-2-yl)methyl)acrylamide] | < 0.1 | > 10 | < 0.1 | – | – | – |
| Nc1ccc(/C=C/C(=O)NCc2cc3cc(-c4ccc(C(=O)N5CCC[C@H]5C(F)(F)F)cn4)cc(C(F)(F)F)c3o2)cn1 [Compound 622, (S,E)-3-(6-aminopyridin-3-yl)-N-((7-(trifluoromethyl)-5-(5-(2-(trifluoromethyl)pyrrolidine-1-carbonyl)pyridin-2-yl)benzofuran-2-yl)methyl)acrylamide] | > 10 | > 10 | 5 to 10 | – | – | – |
| Nc1ccc(/C=C/C(=O)NCc2cc3cc(-c4ccc5occc5c4)cc(-c4ccc(F)cc4F)c3o2)cn1 [Compound 759, (E)-3-(6-aminopyridin-3-yl)-N-((7-(2,4-difluorophenyl)-5,5′-bibenzofuran-2-yl)methyl)acrylamide] | – | – | – | 0.1 to 5 | > 10 | < 0.1 |
| CO[C@@H]1CN(C(=O)c2ccc(-c3cc(C(F)(F)F)c4oc(CNC(=O)/C=C/c5ccc(N)nc5)cc4c3)nc2)C[C@H]1F [Compound 628, (E)-3-(6-aminopyridin-3-yl)-N-((5-(5-(3-fluoro-4-methoxypyrrolidine-1-carbonyl)pyridin-2-yl)-7-(trifluoromethyl)benzofuran-2-yl)methyl)acrylamide] | 0.1 to 5 | > 10 | 0.1 to 5 | – | – | – |
| Nc1ccc(/C=C/C(=O)NCc2cc3cc(-c4ccc(C(=O)N5CC(F)(F)C5)cc4)cc(Cl)c3o2)cn1 [Compound 508, (E)-3-(6-aminopyridin-3-yl)-N-((7-chloro-5-(4-(3,3-difluoroazetidine-1-carbonyl)phenyl)benzofuran-2-yl)methyl)acrylamide] | 0.1 to 5 | > 10 | 0.1 to 5 | – | – | – |
